Results on twelve compounds are retold here after PubChem BioAssay (NCI).

Structures are written as SMILES.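 Where inhibition never reached the appropriate level, the endpoint shown equals the highest concentration tested. Otherwise, values were interpolated linearly from a five-concentration, 48-hour dose response in 96-well plates. TGI: total growth inhibition.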

One assay concerns MDA-N. As to the kind of experiment: NCI tumour cell line growth inhibition, 48 h.
Compound `CCSc1[nH]c(NC(=S)NC(=O)c2ccccc2Cl)c(C(N)=O)c1C(N)=O` showed a TGI of more than 10 µM.

`Clc1ccc(NCc2nnc(CCCCCCCCc3nnc(CNc4ccc(Cl)cc4)o3)o2)cc1` gave a TGI of more than 100 µM.

In turn, `Cc1nc2ccccc2n1COC(Cn1ccnc1)c1ccc(Cl)cc1Cl` (configuration not stated) showed a TGI of more than 100 µM.

Take `Cc1cc(=O)[nH]c(-n2[nH]c(C)c(CCO)c2=O)n1`: the TGI is more than 100 µM.

The compound `COC(=O)[C@@H]1CN(C(C)=O)C(=O)N1` had a TGI of more than 100 µM.

Regarding `NN(CC(=O)O)CC(=O)O`, the TGI is more than 100 µM.

Compound `O=C([O-])C[n+]1ccccc1` had a TGI of more than 100 µM.

For another assay, the system named is MOLT-4 leukemia. Put plainly: NCI tumour cell line growth inhibition, 48 h.
Compound `CNc1ncnc2c1ncn2C1C=CC(COS(N)(=O)=O)C1` (configuration not stated) yielded a TGI of more than 100 µM.

As for `COC1=C(OC)C(=O)C(Cc2c(Cl)nc3sc(C)cn23)=C(C)C1=O`, the TGI is 4.21 µM.

`O=C(CN1CCCCC1)Nc1ccc2sc3ccccc3c(=O)c2n1` yielded a TGI of 30 µM.

Compound `CC(C)=CCC/C(C)=C/CC/C(C)=C/CC/C(C)=C/C=C/C=C(\C)CC/C=C(\C)CC/C=C(\C)CCC=C(C)C` showed a TGI of 49 µM.

`C=C(C)C1=CCC[C@]2(C1)N=C(OC)[C@@H](C(C)C)N=C2OC` displayed a TGI of more than 100 µM.

`CCSc1[nH]c(NC(=S)NC(=O)c2ccccc2Cl)c(C(N)=O)c1C(N)=O`: the TGI was more than 10 µM.

In the case of `Clc1ccc(NCc2nnc(CCCCCCCCc3nnc(CNc4ccc(Cl)cc4)o3)o2)cc1`, the TGI was more than 100 µM.

`Cc1nc2ccccc2n1COC(Cn1ccnc1)c1ccc(Cl)cc1Cl` (configuration not stated): the TGI was more than 100 µM.

In turn, `COC(=O)[C@@H]1CN(C(C)=O)C(=O)N1` showed a TGI of more than 100 µM.

With `NN(CC(=O)O)CC(=O)O`, the TGI was more than 100 µM.

On to `O=C([O-])C[n+]1ccccc1`, for which the TGI is more than 100 µM.

A further assay has as its system NCI-H226 lung. As to the kind of experiment: NCI tumour cell line growth inhibition, 48 h.
Regarding `CC(C)=CCC/C(C)=C/CC/C(C)=C/CC/C(C)=C/C=C/C=C(\C)CC/C=C(\C)CC/C=C(\C)CCC=C(C)C`, the TGI is more than 100 µM.

In the case of `C=C(C)C1=CCC[C@]2(C1)N=C(OC)[C@@H](C(C)C)N=C2OC`, the TGI was more than 100 µM.

Regarding `Cc1cc(=O)[nH]c(-n2[nH]c(C)c(CCO)c2=O)n1`, the TGI was more than 100 µM.

On to `COC(=O)[C@@H]1CN(C(C)=O)C(=O)N1`, for which the TGI was more than 100 µM.

Regarding `NN(CC(=O)O)CC(=O)O`, the TGI was more than 100 µM.

With `O=C([O-])C[n+]1ccccc1`, the TGI was more than 100 µM.

The test system of a further assay is NCI-H23 lung. As to the kind of experiment: NCI tumour cell line growth inhibition, 48 h.
`CNc1ncnc2c1ncn2C1C=CC(COS(N)(=O)=O)C1` (configuration not stated) had a TGI of more than 100 µM.

As to `COC1=C(OC)C(=O)C(Cc2c(Cl)nc3sc(C)cn23)=C(C)C1=O`, the TGI is 42.6 µM.

In turn, `O=C(CN1CCCCC1)Nc1ccc2sc3ccccc3c(=O)c2n1` came in with a TGI of 38.8 µM.

Take `CC(C)=CCC/C(C)=C/CC/C(C)=C/CC/C(C)=C/C=C/C=C(\C)CC/C=C(\C)CC/C=C(\C)CCC=C(C)C`: the TGI is more than 100 µM.

The compound `C=C(C)C1=CCC[C@]2(C1)N=C(OC)[C@@H](C(C)C)N=C2OC` yielded a TGI of more than 100 µM.

`CCSc1[nH]c(NC(=S)NC(=O)c2ccccc2Cl)c(C(N)=O)c1C(N)=O`: the TGI was more than 10 µM.

With `Clc1ccc(NCc2nnc(CCCCCCCCc3nnc(CNc4ccc(Cl)cc4)o3)o2)cc1`, the TGI is more than 100 µM.

In the case of `Cc1nc2ccccc2n1COC(Cn1ccnc1)c1ccc(Cl)cc1Cl` (configuration not stated), the TGI is more than 100 µM.

As to `Cc1cc(=O)[nH]c(-n2[nH]c(C)c(CCO)c2=O)n1`, the TGI is more than 100 µM.

In turn, `COC(=O)[C@@H]1CN(C(C)=O)C(=O)N1` gave a TGI of more than 100 µM.

The compound `NN(CC(=O)O)CC(=O)O` registered a TGI of more than 100 µM.

Compound `O=C([O-])C[n+]1ccccc1` returned a TGI of more than 100 µM.

The next assay deals with OVCAR-4 ovarian. As to the kind of experiment: NCI tumour cell line growth inhibition, 48 h.
Turning to `CNc1ncnc2c1ncn2C1C=CC(COS(N)(=O)=O)C1` (configuration not stated), the TGI was more than 100 µM.

Turning to `COC1=C(OC)C(=O)C(Cc2c(Cl)nc3sc(C)cn23)=C(C)C1=O`, the TGI was determined as 20.6 µM.

The compound `O=C(CN1CCCCC1)Nc1ccc2sc3ccccc3c(=O)c2n1` had a TGI of more than 100 µM.

In the case of `CC(C)=CCC/C(C)=C/CC/C(C)=C/CC/C(C)=C/C=C/C=C(\C)CC/C=C(\C)CC/C=C(\C)CCC=C(C)C`, the TGI was more than 100 µM.

As to `C=C(C)C1=CCC[C@]2(C1)N=C(OC)[C@@H](C(C)C)N=C2OC`, the TGI was more than 100 µM.

Turning to `CCSc1[nH]c(NC(=S)NC(=O)c2ccccc2Cl)c(C(N)=O)c1C(N)=O`, the TGI is more than 10 µM.

`Clc1ccc(NCc2nnc(CCCCCCCCc3nnc(CNc4ccc(Cl)cc4)o3)o2)cc1` had a TGI of more than 100 µM.

In turn, `Cc1nc2ccccc2n1COC(Cn1ccnc1)c1ccc(Cl)cc1Cl` (configuration not stated) returned a TGI of more than 100 µM.

`Cc1cc(=O)[nH]c(-n2[nH]c(C)c(CCO)c2=O)n1` came in with a TGI of more than 100 µM.

`COC(=O)[C@@H]1CN(C(C)=O)C(=O)N1` registered a TGI of more than 100 µM.

`NN(CC(=O)O)CC(=O)O` showed a TGI of more than 100 µM.

Compound `O=C([O-])C[n+]1ccccc1` yielded a TGI of more than 100 µM.

Another assay deals with PC-3 prostate. As to the kind of experiment: NCI tumour cell line growth inhibition, 48 h.
As for `CNc1ncnc2c1ncn2C1C=CC(COS(N)(=O)=O)C1` (configuration not stated), the TGI is more than 100 µM.

On to `COC1=C(OC)C(=O)C(Cc2c(Cl)nc3sc(C)cn23)=C(C)C1=O`, for which the TGI stood at 34.9 µM.

On to `O=C(CN1CCCCC1)Nc1ccc2sc3ccccc3c(=O)c2n1`, for which the TGI stood at 50.1 µM.

Regarding `CC(C)=CCC/C(C)=C/CC/C(C)=C/CC/C(C)=C/C=C/C=C(\C)CC/C=C(\C)CC/C=C(\C)CCC=C(C)C`, the TGI is more than 100 µM.
